Results taken from PMC9882606, “Rationally designed inhibitors of the Musashi protein-RNA interaction by hotspot mimicry” (Research Square, 2023).
pIC50: −log10 of the molar value.

What was measured:
PC9 cells [1] = test: Clonogenic assay, combination with osimertinib, PC9; assay type: cell-based, human; settings: PC9, 7 days, 2 nM osimertinib with 10 μM compound
Description: (§1) Figure 7: Cellular characterization of MSI2 inhibition by R12–8–44–3. (A) Quantification of mRNA immunoprecipitation (RIP) results. Cells were treated with 10 μM of the indicated compounds for 8 hours. After immunoprecipitation with anti-MSI2, mRNA targets were quantified. The amount of each target mRNA in the pulldown was calculated relative to the input, and results from all targets were normalized to PTP4A1. Treating cells with R12–8–44–3 disrupted the interaction with all four cognate mRNAs (PTP4A, SMAD3, EGFR, and MSI2). Data are presented as the average ± S.E.M. from at least 3 independent replicates. […] Cells were treated with indicated compounds at two concentrations (5 μM and 20 μM) for 48 hours, then protein levels of relevant MSI2 targets were determined (EGFR, SMAD3, and MSI2). One representative image is shown; quantification is presented as the average ± S.E.M. from at least 3 independent replicates, normalized first to beta-actin and then to DMSO-treated cells. (C) Cell viability dose-response quantified by CellTiter-Blue after 3 days (left) and cell proliferation with 10μM of compounds quantified by clonogenic assay after 7 days (right). […] (D) Cell viability quantified by clonogenic assay of PC9 cell line after 7-day treatment with 2 nM osimertinib (osi alone), osimertinib with 10 μM R12–8–44–3, or osimertinib with 10 μM R12-neg. […]

hnRNP A1 RRM1 domain = target: T1, hnRNP A1 RRM1 domain (Homo sapiens, UniProt P09651); test: FP competition assay with the same fluorescently-labeled RNA; assay type: binding
T1 construct: we expressed and purified hnRNP A1’s RRM1 domain; made in house
T1 sequence (P09651 14-97 limits assumed): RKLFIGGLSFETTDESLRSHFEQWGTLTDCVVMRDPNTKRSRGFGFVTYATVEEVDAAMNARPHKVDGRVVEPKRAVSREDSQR

MSI1 RRM1 = target: T2, MSI1 RRM1 (Homo sapiens, UniProt O43347); test: Fluorescence polarization (FP) competition assay with fluorescein-labeled RNA; assay type: binding; settings: MSI1 RRM1
T2 sequence (O43347 20-110 limits assumed): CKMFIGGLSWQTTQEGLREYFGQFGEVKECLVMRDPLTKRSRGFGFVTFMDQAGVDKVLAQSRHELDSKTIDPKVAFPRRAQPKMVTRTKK
Text: Figure 1: The hotspot mimicry approach. […] (A) The structure of the MSI1 / RNA complex. The RNA (sticks) wraps around the protein (spheres). Two adjacent bases, A106 and G107 (magenta), are buried in a shallow pocket on the protein surface. (B) An interaction map is generated from the RNA in the complex, by collecting deeply buried bases (magenta) and atoms involved in intermolecular hydrogen bonds (acceptors shown in yellow, donors in green). […] Positive values indicate diminished binding when a given base is replaced with an abasic site, showing that A106 and G107 contribute more than the other nearby bases to the binding affinity of this interaction. (E) The hotspot pharmacophore serves as a template for ligand-based screening, searching for compounds that would mimic the three-dimensional features of the pharmacophore. The screen led to the identification of compound R12, which mimics the geometry of the rings and provides three of the four desired hydrogen bonding groups. (F) R12 competes with fluorescein-labeled RNA for MSI1 binding, as observed through a fluorescence polarization assay. […] (G) Superposition of the hotspot pharmacophore back onto the protein structure illustrates the interactions that should be captured by an ideal ligand: stacking against three aromatic sidechains, and four intermolecular hydrogen bonds.
We applied our “hotspot mimicry” approach to the structure of Musashi-1 RRM1 bound to cognate RNA [54], and found a single hotspot pharmacophore derived from an adjacent pair of buried bases, Adenine106 and Guanine107 (Figure 1a). […] This pharmacophore captures both the aromatic stacking and the hydrogen bonding of the RNA hotspot through its inclusion of ring moieties and donor/acceptor positions, respectively (Figure 1c). To test whether these two particular bases indeed serve as a hotspot of the MSI1 RRM1 / RNA interaction, we used a fluorescence polarization (FP) competition assay (see Supporting Methods) to measure the binding affinity of RNA variants that maintained the backbone but lacked individual bases. […] In contrast, introduction of an abasic site at other nearby positions affected binding much less. Confirmation that A106 and G107 serve as hotspot bases of this interaction thus provided experimental evidence supporting the pharmacophore selection from our computational approach.

PC9 cells [2] = test: Clonogenic assay, PC9; assay type: cell-based, human; settings: PC9, 10 μM, 7 days
Description: as §1

inhibition of hnRNP A1 RNA binding (hnRNP A1 RRM1 domain): does not inhibit
improvement in potency over parent compound (MSI1 RRM1; FP assay): 2 fold
pIC50 (MSI1 RRM1; FP competition): 5.01
Structure (SMILES): Cc1cc(C(=O)OCc2nc(N)c3c(C)c(C)sc3n2)c(N)cc1F [R12–8–44–3]
clonogenic assay in combination with osimertinib (PC9 cells [1]): robust combined effect with osimertinib
cell proliferation (clonogenic assay) (PC9 cells [2]): no effect on cell growth/survival
